Reference: patent US6914045B2, “Glycopeptide antibiotics” (Wyeth Holdings Corporation, priority 2001, dated 2005)
Read-outs that look alike come from different tables or passages of the source.

Columns and labels:
Assay in all cases: in vitro antibacterial evaluation, MIC by broth dilution
Assay type in all cases: cell-based
[1] = tested on: Escherichia coli
[2] = tested on: Streptococcus sp.
Procedure: (§1) Methods for in vitro Antibacterial Evaluation (Table 1)
(§2) The minimum inhibitory concentration (MIC), the lowest concentration of the antibiotic which inhibits growth of the test organism, is determined by the broth dilution method using Muller-Hinton II […] (Baltimore Biological Laboratories) following the recommendations of the National Committee for Clinical Laboratory Standards [Methods for dilution antimicrobial susceptibility tests for bacteria that grow aerobically, approved standard M7-A2, National Committee for Clinical Laboratory Standards, Villanova, Pa.].
(§3) An inoculum level of 5×10^5 CFU/mL, and a range of antibiotic concentrations (64-0.06 μg/mL) is used. […] The test organisms include a spectrum of Gram-positive bacteria comprised of Staphylococcus sp., Streptococcus sp. and Enterococcus sp. These organisms include recent clinical isolates that are resistant to methicillin, penicillin and/or vancomycin.

[3] = tested on: Enterococcus sp.
Procedure: as §1, §2, §3

[4] = tested on: Staphylococcus sp.
Procedure: as §1, §2, §3

[5] = broth dilution, 18 hours at 35° C.

N=C1NCC(C(O)C2NC(=O)C(Cc3ccc(OC4OC(CO)C(OC5OC6COC(CCc7ccccc7)OC6C(O)C5O)C(O)C4O)cc3)NC(=O)C(CC3CCCCC3)NC(=O)CNC(=O)C(CO)NC(=O)C(C(O)C3CNC(=N)N3C3OC(CO)C(O)C(O)C3O)NC2=O)N1 (stereo not drawn) [Example 198]
0.25 µg/mL: MIC Staphylococcus aureus (GC 4542) ([4]; strain GC 4542, broth dilution, 18 hours at 35° C.)
32 µg/mL: MIC Escherichia coli (ATCC 25922) ([1]; 18 hours at 35° C.) | MIC Escherichia coli (GC 4559) ([1]; 18 hours at 35° C.)
0.5 µg/mL: MIC Staphylococcus aureus (ATCC 29213) ([4]; strain ATCC 29213, broth dilution, 18 hours at 35° C.) | MIC Staphylococcus aureus (GC 3051) ([4]; strain GC 3051, broth dilution, 18 hours at 35° C.) | MIC Staphylococcus aureus (GC 3053) ([4]; strain GC 3053, broth dilution, 18 hours at 35° C.) | MIC Staphylococcus aureus (GC 4541) ([4]; strain GC 4541, broth dilution, 18 hours at 35° C.) | MIC Staphylococcus aureus-SMITH (GC 4543) ([4]; strain GC 4543, broth dilution, 18 hours at 35° C.) | MIC Staphylococcus aureus (GC 4544) ([4]; strain GC 4544, broth dilution, 18 hours at 35° C.) | MIC Staphylococcus aureus (GC 4545) ([4]; strain GC 4545, broth dilution, 18 hours at 35° C.) | MIC Staphylococcus haemolyticus (GC 4546) ([4]; strain GC 4546, broth dilution, 18 hours at 35° C.) | MIC Coagulase Negative Staphylococcus (GC 4549) ([4]; strain GC 4549, broth dilution, 18 hours at 35° C.) | MIC Coagulase Negative Staphylococcus (GC 4551) ([4]; strain GC 4551, broth dilution, 18 hours at 35° C.)
<0.12 µg/mL: MIC Streptococcus agalactiae (GC 4564) [2, 5] | MIC Streptococcus pneumoniae (ATCC 6301) [2, 5] | MIC Streptococcus pneumoniae (GC 1894) [2, 5] | MIC Streptococcus pneumoniae (GC 4565) [2, 5] | MIC Streptococcus pyogenes (GC 4563) [2, 5] | MIC Streptococcus pneumoniae (ATCC 6301) ([2]; broth dilution, inoculum 5×10^5 CFU/mL, 18 hours at 35° C., strain ATCC 6301) | MIC Streptococcus pneumoniae (GC 1894) ([2]; broth dilution, inoculum 5×10^5 CFU/mL, 18 hours at 35° C., strain GC 1894) | MIC Streptococcus pyogenes (GC 4563) ([2]; broth dilution, inoculum 5×10^5 CFU/mL, 18 hours at 35° C., strain GC 4563) | MIC Streptococcus agalactiae (GC 4564) ([2]; broth dilution, inoculum 5×10^5 CFU/mL, 18 hours at 35° C., strain GC 4564) | MIC Streptococcus pneumoniae (GC 4565) ([2]; broth dilution, inoculum 5×10^5 CFU/mL, 18 hours at 35° C., strain GC 4565) | MIC Coagulase Negative Staphylococcus (GC 4548) ([4]; strain GC 4548, broth dilution, 18 hours at 35° C.)
1 µg/mL: MIC Escherichia coli (GC 4560) ([1]; 18 hours at 35° C.) | MIC Enterococcus avium (GC 4558) [3, 5] | MIC Enterococcus faecalis (ATCC 29212) [3, 5] | MIC Enterococcus faecalis (GC 2242) [3, 5] | MIC Enterococcus faecalis (GC 2691) [3, 5] | MIC Enterococcus faecalis (GC 3059) [3, 5] | MIC Enterococcus faecalis (GC 4552) [3, 5] | MIC Enterococcus faecalis (GC 4553) [3, 5] | MIC Enterococcus faecalis (GC 4554) [3, 5] | MIC Enterococcus faecalis (GC 6189) [3, 5] | MIC Enterococcus faecium (GC 2243) [3, 5] | MIC Enterococcus faecium (GC 4556) [3, 5] | MIC Enterococcus faecium (GC 4557) [3, 5] | MIC Enterococcus faecalis (ATCC 29212) ([3]; broth dilution, inoculum 5×10^5 CFU/mL, 18 hours at 35° C., strain ATCC 29212) | MIC Enterococcus faecalis (GC 2242) ([3]; broth dilution, inoculum 5×10^5 CFU/mL, 18 hours at 35° C., strain GC 2242) | MIC Enterococcus faecium (GC 2243) ([3]; broth dilution, inoculum 5×10^5 CFU/mL, 18 hours at 35° C., strain GC 2243) | MIC Enterococcus faecalis (GC 2691) ([3]; broth dilution, inoculum 5×10^5 CFU/mL, 18 hours at 35° C., strain GC 2691) | MIC Enterococcus faecalis (GC 3059) ([3]; broth dilution, inoculum 5×10^5 CFU/mL, 18 hours at 35° C., strain GC 3059) | MIC Enterococcus faecalis (GC 4552) ([3]; broth dilution, inoculum 5×10^5 CFU/mL, 18 hours at 35° C., strain GC 4552) | MIC Enterococcus faecalis (GC 4553) ([3]; broth dilution, inoculum 5×10^5 CFU/mL, 18 hours at 35° C., strain GC 4553) | MIC Enterococcus faecalis (GC 4554) ([3]; broth dilution, inoculum 5×10^5 CFU/mL, 18 hours at 35° C., strain GC 4554) | MIC Enterococcus faecium (GC 4556) ([3]; broth dilution, inoculum 5×10^5 CFU/mL, 18 hours at 35° C., strain GC 4556) | MIC Enterococcus faecium (GC 4557) ([3]; broth dilution, inoculum 5×10^5 CFU/mL, 18 hours at 35° C., strain GC 4557) | MIC Enterococcus avium (GC 4558) ([3]; broth dilution, inoculum 5×10^5 CFU/mL, 18 hours at 35° C., strain GC 4558) | MIC Enterococcus faecalis (GC 6189) ([3]; broth dilution, inoculum 5×10^5 CFU/mL, 18 hours at 35° C., strain GC 6189) | MIC Staphylococcus aureus (GC 1131) ([4]; broth dilution, 18 hours at 35° C., inoculum 5×10^5 CFU/mL, strain GC 1131) | MIC Staphylococcus aureus (GC 1131) ([4]; strain GC 1131, broth dilution, 18 hours at 35° C.) | MIC Coagulase Negative Staphylococcus (GC 4547) ([4]; strain GC 4547, broth dilution, 18 hours at 35° C.)

Cyclo[3-[[2-(2,3,4,6-tetra-O-benzoylhexopyranosyl)amino]-1,3-benzoxazol-5-yl]alanyl-3-(2-iminoimidazolidin-4-yl)seryl-3-(3-hexopyranosyl-2-iminoimidazolidin 4-yl)seryl-serylglycyl-β-methylphenylalanyl] [Example 44]
8 µg/mL: MIC Streptococcus pneumoniae (ATCC 6301) [2] | MIC Enterococcus faecalis (GC 4553) [3] | MIC Enterococcus faecium (GC 2243) [3] | MIC Enterococcus faecium (GC 4557) [3] | MIC Coagulase Negative Staphylococcus (GC 4548) [4] | MIC Coagulase Negative Staphylococcus (GC 6257) [4]
>64 µg/mL: MIC Escherichia coli (ATCC 25922) [1] | MIC Escherichia coli (GC 4559) [1]
64 µg/mL: MIC Escherichia coli (GC 4560) [1] | MIC Coagulase Negative Staphylococcus (GC 4547) [4] | MIC Staphylococcus aureus (ATCC 29213) [4] | MIC Staphylococcus aureus (GC 1131) [4] | MIC Staphylococcus aureus (GC 3051) [4] | MIC Staphylococcus aureus (GC 4541) [4] | MIC Staphylococcus aureus (GC 4542) [4] | MIC Staphylococcus haemolyticus (GC 4546) [4]
4 µg/mL: MIC Streptococcus pyogenes (GC 4563) [2] | MIC Enterococcus avium (GC 4558) [3]
2 µg/mL: MIC Coagulase Negative Staphylococcus (GC 4549) [4]
16 µg/mL: MIC Streptococcus agalactiae (GC 4564) [2] | MIC Streptococcus pneumoniae (GC 1894) [2] | MIC Enterococcus faecalis (ATCC 29212) [3] | MIC Enterococcus faecalis (GC 2242) [3] | MIC Enterococcus faecalis (GC 2691) [3] | MIC Enterococcus faecalis (GC 4552) [3] | MIC Enterococcus faecalis (GC 6189) [3] | MIC Coagulase Negative Staphylococcus (GC 4551) [4] | MIC Staphylococcus aureus (GC 4544) [4] | MIC Staphylococcus aureus (GC 4545) [4]
32 µg/mL: MIC Streptococcus pneumoniae (GC 4565) [2] | MIC Enterococcus faecalis (GC 3059) [3] | MIC Enterococcus faecalis (GC 4554) [3] | MIC Enterococcus faecium (GC 4556) [3] | MIC Staphylococcus aureus (GC 3053) [4] | MIC Staphylococcus aureus-SMITH (GC 4543) [4]
